Test results as given in paper PMC7241567 (Journal of Enzyme Inhibition and Medicinal Chemistry, 2020).
“Also recorded” adds a separate entry of the source.

Assays:
Format in all cases: biochemical
FLT3 = molecular target: T1, FLT3 (Homo sapiens, UniProt P36888); assay: Reaction Biology Kinase HotSpot radiometric kinase assay; details: for IC50: FLT3 wild type, read-out: IC50 against FLT3
T1 construct: purchased Reaction Biology Corp. (Kinase HotSpot service)
T1 sequence (P36888 27-993): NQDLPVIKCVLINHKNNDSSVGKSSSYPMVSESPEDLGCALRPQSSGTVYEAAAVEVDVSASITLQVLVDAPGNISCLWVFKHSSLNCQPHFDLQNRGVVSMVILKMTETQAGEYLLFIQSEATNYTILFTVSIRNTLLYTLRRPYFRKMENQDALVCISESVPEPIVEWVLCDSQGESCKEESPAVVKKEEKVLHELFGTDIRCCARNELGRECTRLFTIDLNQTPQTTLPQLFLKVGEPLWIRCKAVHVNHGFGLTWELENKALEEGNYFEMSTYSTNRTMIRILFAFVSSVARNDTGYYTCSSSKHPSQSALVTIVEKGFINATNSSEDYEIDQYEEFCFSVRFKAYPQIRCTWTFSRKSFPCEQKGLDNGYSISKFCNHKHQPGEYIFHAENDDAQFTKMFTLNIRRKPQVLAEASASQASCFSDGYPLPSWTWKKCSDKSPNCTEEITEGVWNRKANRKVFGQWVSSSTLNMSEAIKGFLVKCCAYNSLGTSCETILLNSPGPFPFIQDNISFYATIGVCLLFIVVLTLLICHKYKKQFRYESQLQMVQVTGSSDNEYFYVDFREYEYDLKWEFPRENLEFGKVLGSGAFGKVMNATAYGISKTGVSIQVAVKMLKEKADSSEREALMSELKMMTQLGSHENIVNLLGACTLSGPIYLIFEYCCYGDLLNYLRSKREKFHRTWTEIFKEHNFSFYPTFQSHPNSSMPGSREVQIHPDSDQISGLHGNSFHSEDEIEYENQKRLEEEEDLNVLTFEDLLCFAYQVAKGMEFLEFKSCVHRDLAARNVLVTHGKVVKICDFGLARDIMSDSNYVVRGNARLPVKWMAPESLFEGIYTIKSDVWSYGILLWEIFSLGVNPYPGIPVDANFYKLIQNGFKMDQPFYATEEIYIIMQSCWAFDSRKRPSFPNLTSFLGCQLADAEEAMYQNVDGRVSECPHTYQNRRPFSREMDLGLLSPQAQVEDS

[1] = tested on: other kinases including FMS and cKit; assay: Kinase panel screening, overall selectivity; details: 36 different kinases, single dose of 10 µM
Experimental: Next, we investigated kinase panel screening of 7d and 7b over 36 different kinases at a single dose of 10 µM (Figure 5). […] High selectivity over cKit might be an opportunity to avoid myelosuppression toxicity, which was reported from a dual FLT3/cKit inhibitor[19–22]. It is a valuable result to secure such a kinase selectivity profile considering the similarities of the same type III receptor tyrosine kinase (FMS, cKit and FLT3).
3. Evaluation of IC50 and Selected Kinase Profiling
We used Reaction Biology Corp. Kinase HotSpotSM service (www.reactionbiology.com) for IC50 determination of all compounds and kinase profile. Assay protocol: In a final reaction volume of 25 μL, Peptide substrate, [[…]], 5 µM, ATP 10 µM, FLT3(h) (5-10 […]
mU) is incubated with 25 mM Tris pH 7.5, 0.02 mM EGTA, 0.66 mg/mL myelin basic protein, 10 mM Mg Acetate and [γ-33P-ATP] (specific activity approx. 500 cpm/pmol, concentration as required). The reaction is initiated by the addition of the Mg-ATP mix. After incubation for 40 minutes at room temperature, the reaction is stopped by the addition of 5 μL of a 3% phosphoric acid solution. 10 μL of the reaction is then spotted onto a P30 filtermat and washed three times for 5 minutes in 75 mM phosphoric acid and once in methanol prior to drying and […]

ERK1 = molecular target: T2, ERK1 (Homo sapiens, UniProt P27361); assay: Reaction Biology Kinase HotSpot radiometric kinase assay; details: control compound, footnote b: data for SCH772984
T2 construct: purchased Reaction Biology Corp. (Kinase HotSpot service)

RIPK3 = molecular target: T3, RIPK3 (Homo sapiens, UniProt Q9Y572); assay: as above; details: read-out: GW5074 IC50, control compound, footnote a: data for GW5074
T3 construct: purchased Reaction Biology Corp. (Kinase HotSpot service)
T3 sequence (Q9Y572 whole entry): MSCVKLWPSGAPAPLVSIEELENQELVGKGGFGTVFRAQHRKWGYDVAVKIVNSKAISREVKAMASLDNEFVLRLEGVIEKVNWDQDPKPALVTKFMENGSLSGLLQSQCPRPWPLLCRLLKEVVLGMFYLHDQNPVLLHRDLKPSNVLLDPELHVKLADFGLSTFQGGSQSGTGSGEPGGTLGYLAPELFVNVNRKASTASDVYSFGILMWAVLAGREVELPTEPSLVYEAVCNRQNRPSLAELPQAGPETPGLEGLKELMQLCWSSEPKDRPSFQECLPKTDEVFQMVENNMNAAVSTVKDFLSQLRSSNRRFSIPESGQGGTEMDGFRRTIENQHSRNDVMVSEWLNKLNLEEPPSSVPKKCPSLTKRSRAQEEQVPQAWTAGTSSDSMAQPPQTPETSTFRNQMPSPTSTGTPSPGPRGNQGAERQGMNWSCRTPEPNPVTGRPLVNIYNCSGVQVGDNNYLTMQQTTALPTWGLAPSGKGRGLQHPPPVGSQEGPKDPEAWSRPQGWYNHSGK

T2 sequence (P27361 whole entry): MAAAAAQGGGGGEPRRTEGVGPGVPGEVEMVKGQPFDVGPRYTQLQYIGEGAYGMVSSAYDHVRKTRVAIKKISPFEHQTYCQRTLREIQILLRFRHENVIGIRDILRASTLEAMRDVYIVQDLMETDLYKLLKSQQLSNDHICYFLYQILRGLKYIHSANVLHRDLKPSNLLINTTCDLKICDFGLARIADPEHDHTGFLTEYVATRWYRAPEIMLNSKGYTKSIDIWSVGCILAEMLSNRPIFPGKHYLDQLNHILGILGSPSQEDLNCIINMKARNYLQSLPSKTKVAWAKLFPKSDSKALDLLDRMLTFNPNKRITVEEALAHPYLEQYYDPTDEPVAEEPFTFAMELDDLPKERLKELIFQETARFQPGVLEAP

Row | IC50 (FLT3) [nM] | SMILES | inhibitory activity towards FLT3 (in words) (FLT3) | further results
1 | 3590 | Cc1oncc1C(=O)Nc1ccc2cnc(-c3cc(OC4CCN(C)CC4)cc(C(F)(F)F)c3)nc2c1 [Compound 7n] | maintained the activity; also recorded: maintained inhibitory activity | 
2 |  | Cc1oncc1C(=O)Nc1ccc2cnc(-c3ccccn3)nc2c1 [Compound 7q] | did not show inhibitory activity towards FLT3 or were very weak | 
3 |  | CC(=O)N1CCC(c2ncc3ccc(NC(=O)c4cnoc4C)cc3n2)CC1 [Compound 7o] | did not show inhibitory activity towards FLT3 or were very weak | 
4 |  | CCN1CCN(Cc2cc(-c3ncc4ccc(NC(=O)c5cnoc5C)cc4n3)cc(C(F)(F)F)c2)CC1 [Compound 7e] | maintained the activity; also recorded: maintained inhibitory activity | decrease of activity towards FLT3 relative to 7d (FLT3; compared with 7d): about 10 fold
5 | 790 | Cc1oncc1C(=O)Nc1ccc2cnc(-c3ccc4[nH]ncc4c3)nc2c1 [Compound 7m] | maintained inhibitory activity | 
6 | 4700 | COc1ccc(/C=C/c2ncc3ccc(NC(=O)c4cnoc4C)cc3n2)cc1 [Compound 7j] | maintained inhibitory activity | 
7 | 3980 | Cc1oncc1C(=O)Nc1ccc2cnc(-c3cc(N4CCOCC4)cc(C(F)(F)F)c3)nc2c1 [Compound 7b] | maintained the activity; also recorded: maintained inhibitory activity | activity on other kinases in panel (in words) [1]: almost no activity
8 |  | O=C(Nc1ccc2[nH]nc(-c3ccncc3)c2c1)[C@@H]1CCN(CC(=O)N2CCN(c3ccc(-c4ncccn4)cc3)CC2)C1 [SCH772984, reference compound] |  | IC50 (ERK1): 4.47 nM
9 | 1580 | Cc1cn(-c2cc(-c3ncc4ccc(NC(=O)c5cnoc5C)cc4n3)cc(C(F)(F)F)c2)cn1 [Compound 7c] | maintained the activity; also recorded: maintained inhibitory activity | 
10 |  | Cc1oncc1C(=O)Nc1ccc2cnc(-c3cc(C(C)(C)C)on3)nc2c1 [Compound 7l] | did not show inhibitory activity towards FLT3 or were very weak | 
11 |  | Cc1oncc1C(=O)Nc1ccc2cnc(-c3cnn(-c4ccccc4)c3C(F)(F)F)nc2c1 [Compound 7h] | loss of activity | 
12 |  | O=C1Nc2ccc(I)cc2/C1=C/c1cc(Br)c(O)c(Br)c1 [GW5074, reference compound] |  | IC50 (RIPK3): 1650 nM
13 |  | Cc1oncc1C(=O)Nc1ccc2cnc(-c3ccncc3)nc2c1 [Compound 7p] | did not show inhibitory activity towards FLT3 or were very weak | 
